Active and inactive are the calls of the source. The calls are words filed in the database; no cut-off is given here.
How the values were obtained:
Plasmodium berghei [1] = assay: Antiplasmodial activity against GFP-expressing liver stage Plasmodium berghei sporozoites infected in human Huh7 cells preincubated for 1 hr before infection at 1 uM measured after 48 hrs post infection by firefly luciferase reporter gene assay; assay type: functional; conditions: Huh-7
[2] = Cytotoxicity against human HuH7 cells up to 15 uM after 48 hrs by Alamar Blue assay; assay type: cell-based; conditions: huh-7, 48 h
Plasmodium berghei [3] = assay: Antiplasmodial activity against GFP-expressing liver stage Plasmodium berghei sporozoites infected in human Huh7 cells preincubated for 1 hr before infection at 5 uM measured after 48 hrs post infection by firefly luciferase reporter gene assay; assay type: functional; conditions: Huh-7
Plasmodium berghei [4] = assay: Antiplasmodial activity against GFP-expressing liver stage Plasmodium berghei sporozoites infected in human Huh7 cells preincubated for 1 hr before infection at 15 uM measured after 48 hrs post infection by firefly luciferase reporter gene assay; assay type: functional; conditions: Huh-7
Plasmodium berghei [5] = assay: Antiplasmodial activity against GFP-expressing liver stage Plasmodium berghei sporozoites infected in human Huh7 cells preincubated for 1 hr before infection measured after 48 hrs post infection by firefly luciferase reporter gene assay; assay type: functional, organism-based; conditions: Huh-7

Structure (SMILES)	inhibition at 1 µM (Plasmodium berghei [1]) [%]	Activity [2]	inhibition at 5 µM (Plasmodium berghei [3]) [%]	inhibition at 15 µM (Plasmodium berghei [4]) [%]	inhibition (Plasmodium berghei [1])	inhibition (Plasmodium berghei [3])	inhibition (Plasmodium berghei [4])	inhibition (Plasmodium berghei [5])
CCCC(=O)O[C@@H](C=C(C)C)C[C@@H](C)[C@H]1CC[C@@]2(C)[C@@H]3[C@@H](OC)C=C4[C@@H](CC[C@H](O)C4(C)C)[C@]3(C)CC[C@]12C [KARAVOATE E]	39	Toxic	89	99	–	–	–	–
CO[C@H]1C=C2[C@@H](CC[C@H](OC(=O)c3ccc([N+](=O)[O-])cc3)C2(C)C)[C@]2(C)CC[C@]3(C)[C@@H]([C@H](C)C[C@H](C=C(C)C)OC(=O)c4ccc([N+](=O)[O-])cc4)CC[C@@]3(C)[C@H]12 [KARAVOATE J]	–	Non-toxic	–	–	inactive	inactive	inactive	–
COc1ccc(C(=O)O[C@H]2CC[C@@H]3C(=C[C@H](OC)[C@@H]4[C@@]3(C)CC[C@]3(C)[C@@H]([C@H](C)C[C@H](C=C(C)C)OC(=O)c5ccc(OC)cc5)CC[C@@]43C)C2(C)C)cc1 [KARAVOATE N]	–	Non-toxic	–	–	inactive	inactive	inactive	–
CCC(=O)O[C@@H](C=C(C)C)C[C@@H](C)[C@H]1CC[C@@]2(C)[C@@H]3[C@@H](OC)C=C4[C@@H](CC[C@H](O)C4(C)C)[C@]3(C)CC[C@]12C [KARAVOATE C]	13	Non-toxic	60	–	–	–	–	–
CCC(=O)O[C@H]1CC[C@@H]2C(=C[C@H](OC)[C@@H]3[C@@]2(C)CC[C@]2(C)[C@@H]([C@H](C)C[C@H](C=C(C)C)OC(=O)CC)CC[C@@]32C)C1(C)C [KARAVOATE D]	34	Non-toxic	82	93	–	–	–	–
CO[C@H]1C=C2[C@@H](CC[C@H](OC(=O)c3ccccc3)C2(C)C)[C@]2(C)CC[C@]3(C)[C@@H]([C@H](C)C[C@H](C=C(C)C)OC(=O)c4ccccc4)CC[C@@]3(C)[C@H]12 [KARAVOATE H]	–	Non-toxic	–	–	inactive	inactive	inactive	–
CO[C@H]1C=C2[C@@H](CC[C@H](O)C2(C)C)[C@]2(C)CC[C@]3(C)[C@@H]([C@H](C)C[C@H](C=C(C)C)OC(=O)c4ccc([N+](=O)[O-])cc4)CC[C@@]3(C)[C@H]12 [KARAVOATE I]	34	Non-toxic	88	97	–	–	–	–
COC(C)(C)/C=C/C[C@@H](C)[C@H]1CC[C@@]2(C)[C@@H]3[C@@H](O[C@H]4O[C@@H](CO)[C@H](O)[C@H](O)[C@@H]4O)C=C4[C@@H](CC[C@H](O)C4(C)C)[C@]3(C)CC[C@]12C [BALSAMINOSIDE A]	–	Toxic	–	–	–	–	–	–
CO[C@H]1C=C2[C@@H](CC[C@H](O)C2(C)C)[C@]2(C)CC[C@]3(C)[C@@H]([C@H](C)C[C@H](C=C(C)C)OC(C)=O)CC[C@@]3(C)[C@H]12 [KARAVOATE A]	28	Toxic	93	–	–	–	–	–
CO[C@H]1C=C2[C@@H](CC[C@H](O)[C@]2(C)CO)[C@]2(C)CC[C@]3(C)[C@@H]([C@H](C)C[C@@H](O)C=C(C)C)CC[C@@]3(C)[C@H]12 [BALSAMINOL B]	–	Non-toxic	47	–	–	–	–	–
CCCC(=O)O[C@H]1CC[C@@H]2C(=C[C@H](OC)[C@@H]3[C@@]2(C)CC[C@]2(C)[C@@H]([C@H](C)C[C@H](C=C(C)C)OC(=O)CCC)CC[C@@]32C)C1(C)C [KARAVOATE F]	11	Non-toxic	64	82	–	–	–	–
CC(=O)O[C@H]1C=C2[C@@H](CC[C@H](OC(C)=O)C2(C)C)[C@]2(C)CC[C@]3(C)[C@@H]([C@H](C)C[C@H](C=C(C)C)OC(C)=O)CC[C@@]3(C)[C@H]12 [TRIACETYLBALSAMINOL F]	–	Non-toxic	–	–	Active	Active	Active	–
CO[C@H]1C=C2[C@@H](CC[C@H](OC(C)=O)C2(C)C)[C@]2(C)CC[C@]3(C)[C@@H]([C@H](C)C[C@H](C=C(C)C)OC(C)=O)CC[C@@]3(C)[C@H]12 [KARAVOATE B]	60	Non-toxic	96	99	–	–	–	Dose-dependent effect
COc1ccc(C(=O)O[C@@H](C=C(C)C)C[C@@H](C)[C@H]2CC[C@@]3(C)[C@@H]4[C@@H](OC)C=C5[C@@H](CC[C@H](O)C5(C)C)[C@]4(C)CC[C@]23C)cc1 [KARAVOATE M]	14	Non-toxic	87	99	–	–	–	–
CO[C@H]1C=C2[C@@H](CC[C@H](O)C2(C)C)[C@]2(C)CC[C@]3(C)[C@@H]([C@H](C)C[C@@H](O)C=C(C)C)CC[C@@]3(C)[C@H]12 [KARAVELAGENIN C]	27	Non-toxic	73	99	–	–	–	–
CC(C)=C[C@H](O)C[C@@H](C)[C@H]1CC[C@@]2(C)[C@@H]3[C@@H](O)C=C4[C@@H](CC[C@H](O)C4(C)C)[C@]3(C)CC[C@]12C [BALSAMINOL F]	–	Non-toxic	32	–	Active	–	Active	–

Source: ChEMBL document CHEMBL3351681, “Dual-stage triterpenoids from an African medicinal plant targeting the malaria parasite” (Bioorg Med Chem, 2014)
